Measured values from paper PMC1887769 (The Journal of General Physiology, 1998).

Target: T1, αβγXENaC (Xenopus ENaC) (Xenopus laevis, UniProt P51167+P51169+P51171)
T1 sequence (P51167 1-632): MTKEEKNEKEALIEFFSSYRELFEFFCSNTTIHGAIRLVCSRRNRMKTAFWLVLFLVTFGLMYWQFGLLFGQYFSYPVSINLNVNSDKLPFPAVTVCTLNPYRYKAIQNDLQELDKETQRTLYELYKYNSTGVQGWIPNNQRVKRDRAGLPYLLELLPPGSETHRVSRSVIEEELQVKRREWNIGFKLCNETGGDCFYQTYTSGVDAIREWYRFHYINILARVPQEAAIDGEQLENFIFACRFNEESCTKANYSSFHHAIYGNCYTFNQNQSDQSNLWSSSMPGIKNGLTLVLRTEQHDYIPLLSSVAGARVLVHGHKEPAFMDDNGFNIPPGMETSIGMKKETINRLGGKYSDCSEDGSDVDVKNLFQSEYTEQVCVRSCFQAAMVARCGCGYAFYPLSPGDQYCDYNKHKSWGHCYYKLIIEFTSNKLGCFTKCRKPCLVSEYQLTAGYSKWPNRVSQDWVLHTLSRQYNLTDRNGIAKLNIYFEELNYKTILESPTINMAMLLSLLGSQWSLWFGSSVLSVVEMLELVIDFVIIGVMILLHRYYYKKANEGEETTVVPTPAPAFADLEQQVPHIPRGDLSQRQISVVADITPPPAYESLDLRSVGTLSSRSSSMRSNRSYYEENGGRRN
T1 sequence (P51169 1-647): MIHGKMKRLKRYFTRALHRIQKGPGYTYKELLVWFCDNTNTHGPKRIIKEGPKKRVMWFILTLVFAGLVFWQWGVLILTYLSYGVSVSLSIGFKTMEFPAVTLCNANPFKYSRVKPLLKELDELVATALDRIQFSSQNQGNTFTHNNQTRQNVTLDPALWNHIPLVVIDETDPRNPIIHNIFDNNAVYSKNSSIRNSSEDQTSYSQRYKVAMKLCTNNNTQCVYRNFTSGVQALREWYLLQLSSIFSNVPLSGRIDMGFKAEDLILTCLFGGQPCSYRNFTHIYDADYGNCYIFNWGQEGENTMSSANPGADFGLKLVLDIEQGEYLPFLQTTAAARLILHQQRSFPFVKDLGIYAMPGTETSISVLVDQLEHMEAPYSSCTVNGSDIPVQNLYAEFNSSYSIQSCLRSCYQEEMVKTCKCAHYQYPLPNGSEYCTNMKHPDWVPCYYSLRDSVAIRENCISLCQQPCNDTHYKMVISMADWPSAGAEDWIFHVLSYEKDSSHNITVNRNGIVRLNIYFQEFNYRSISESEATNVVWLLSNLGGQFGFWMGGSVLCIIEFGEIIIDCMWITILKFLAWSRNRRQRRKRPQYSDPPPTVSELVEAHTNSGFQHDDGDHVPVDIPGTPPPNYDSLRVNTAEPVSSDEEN
T1 sequence (P51171 1-660): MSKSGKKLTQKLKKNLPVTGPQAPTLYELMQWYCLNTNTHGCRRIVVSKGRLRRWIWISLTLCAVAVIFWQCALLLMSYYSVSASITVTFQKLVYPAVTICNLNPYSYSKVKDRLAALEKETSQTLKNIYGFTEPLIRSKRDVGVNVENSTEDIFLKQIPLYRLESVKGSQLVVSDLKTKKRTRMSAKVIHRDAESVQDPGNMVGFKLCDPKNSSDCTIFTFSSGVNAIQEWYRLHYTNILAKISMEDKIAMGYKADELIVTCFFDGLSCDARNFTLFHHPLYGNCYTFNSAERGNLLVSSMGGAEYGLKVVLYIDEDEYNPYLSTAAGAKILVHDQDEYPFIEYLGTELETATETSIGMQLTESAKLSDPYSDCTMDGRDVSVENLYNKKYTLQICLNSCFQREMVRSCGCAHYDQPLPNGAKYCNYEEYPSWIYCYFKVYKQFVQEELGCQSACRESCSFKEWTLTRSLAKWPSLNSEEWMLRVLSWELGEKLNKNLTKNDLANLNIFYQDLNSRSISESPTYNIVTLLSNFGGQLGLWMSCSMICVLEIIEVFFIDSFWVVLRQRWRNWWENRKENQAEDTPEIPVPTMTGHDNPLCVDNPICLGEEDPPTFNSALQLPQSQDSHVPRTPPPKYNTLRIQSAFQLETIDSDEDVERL
Assay: two-electrode voltage clamp of Na+ current in oocytes
Format: cell-based

Ki: 550 ± 30 nM
Structure (SMILES): N=C(N)NC(=O)c1nc(Cl)c(N)nc1N [amiloride]
